Laboratory results taken from patent US20240066136A1, “MODIFIED PROTEINS AND PROTEIN DEGRADERS” (Cullgen (Shanghai), Inc., priority 2020, published 2024).
pIC50, pKd: −log10 of the molar value.

Assays:
SK-N-SH = test: Cell viability assay (CellTiter-Glo); type: cell-based; settings: Homo sapiens, 120 h, 5 days
Experimental: (§1) A variety of cancer cell lines were treated with Palbociclib or selected heterobifunctional compounds for 5 days at indicated concentrations in FIG. 12.
(§2) Cell Culture. LNCaP (clone FGC), Calu-1, MDA-MB-468, MDA-MB-453, NCI-H358, HCC1937, BT-549, HCT116, A375, SK-MEL-28, SK-N-SH, MIA PaCa-2, HS 578T, HCC827, MIA PaCa-2, and other cells were cultured at 37° C. with 5% CO2 in DMEM or RPMI 1640 Medium supplemented with 10% fetal bovine serum. Cells were authenticated using the short tandem repeat (STR) assays. Mycoplasma test results were negative.
(§3) Cell viability assay. Cells were seeded at a density of 5000 cells per well in 96-well assay plates and treated with test compounds following a 11-point 3-fold serial dilution for 3-5 days. Three days later, cell viability was determined using the CellTiter-Glo Assay Kit according to the manufacturer's instructions. The dose-response curves were determined and IC50 values were calculated using the GraphPad Prism software following a nonlinear regression (least squares fit) method.

HCT116 = test: Cell viability assay (CellTiter-Glo); type: cell-based; settings: Homo sapiens, HCT-116, 120 h; HCT116, 5 days
Experimental: as §1, §2, §3

HCC827 = test: Cell viability assay (CellTiter-Glo); type: cell-based; settings: Homo sapiens, 120 h; HCC827, 5 days
Experimental: as §1, §2, §3

HCC1937 = test: Cell viability assay (CellTiter-Glo); type: cell-based; settings: Homo sapiens, 120 h; HCC1937, 5 days
Experimental: as §1, §2, §3

A375 = test: Cell viability assay (CellTiter-Glo); type: cell-based; settings: Homo sapiens, A-375, 120 h; A375, 5 days
Experimental: as §1, §2, §3

Hs 578T = test: Cell viability assay (CellTiter-Glo); type: cell-based; settings: Homo sapiens, 120 h, 5 days
Experimental: as §1, §2, §3

NCI-H358 = test: Cell viability assay (CellTiter-Glo); type: cell-based; settings: Homo sapiens, 120 h; NCI-H358, 5 days
Experimental: as §1, §2, §3

SK-MEL-28 = test: Cell viability assay (CellTiter-Glo); type: cell-based; settings: Homo sapiens, 120 h; SK-MEL-28, 5 days
Experimental: as §1, §2, §3

MDAMB-468 = test: Cell viability assay (CellTiter-Glo); type: cell-based; settings: Homo sapiens, MDA-MB-468, 120 h; MDAMB-468, 5 days
Experimental: as §1, §2, §3

BT-549 = test: Cell viability assay (CellTiter-Glo); type: cell-based; settings: Homo sapiens, 120 h; BT-549, 5 days
Experimental: as §1, §2, §3

MIA PaCa-2 = test: Cell viability assay (CellTiter-Glo); type: cell-based; settings: Homo sapiens, 120 h; MIA PaCa-2, 5 days
Experimental: (§4) Calu-1, MDA-MB-453 or MIA PaCa-2 cancer cells were treated with Palbociclib or selected heterobifunctional compounds for 5 days at indicated concentrations following a 2-fold serial dilution.
as §1, §2, §3

MDAMB-453 = test: Cell viability assay (CellTiter-Glo); type: cell-based; settings: Homo sapiens, MDA-MB-453, 120 h; MDAMB-453, 5 days
Experimental: as §4, §1, §2, §3

Calu-1 = test: Cell viability assay (CellTiter-Glo); type: cell-based; settings: Homo sapiens, 120 h; Calu-1, 5 days
Experimental: as §4, §1, §2, §3

[1] = system: Calu-1, MDA-MB-453, and MIA PaCa-2 cell lines; test: Cell viability after 5 days of treatment; type: cell-based; settings: variety of different cell types
Description: FIG. 12 and Table 8 include cell viability data after treatment with heterobifunctional compound D-128, D129, or D-130. […] The compounds may be effective in multiple cell types.

Human DDB1 = Human DDB1 (Homo sapiens (Human), UniProt Q16531); test: Surface plasmon resonance (SPR) binding assay to immobilized His-DDB1; settings: SPR, DDB1 binding moieties with linkers and/or target protein binding moiety; read-out: Binding (Kd)
Method in brief: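 Baculovirus-expressed His-DDB1 (High5 cells) amine-coupled to 11,000–13,000 RU on a CM5 chip; compounds injected in multi-cycle format without regeneration at 25° C in HBS-EP pH 7.4 (120 s association/dissociation). Double-referenced, solvent-corrected data fit to steady-state affinity model for KD.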

CDK4 = CDK4 (Homo sapiens (Human), UniProt P11802); test: Immunoblot of CDK4 protein in Calu-1 cells; type: cell-based; settings: indicated concentrations, 16 hours, immunoblot
Chain of CDK4 (P11802 whole entry): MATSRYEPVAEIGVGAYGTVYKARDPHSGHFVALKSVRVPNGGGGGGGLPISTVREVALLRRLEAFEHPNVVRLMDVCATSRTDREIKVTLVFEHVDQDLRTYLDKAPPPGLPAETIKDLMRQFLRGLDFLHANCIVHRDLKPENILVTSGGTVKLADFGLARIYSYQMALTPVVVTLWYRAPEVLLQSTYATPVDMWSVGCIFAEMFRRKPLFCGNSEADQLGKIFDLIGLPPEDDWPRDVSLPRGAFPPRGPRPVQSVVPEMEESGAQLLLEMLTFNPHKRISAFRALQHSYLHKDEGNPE
Experimental: Additional heterobifunctional compounds were designed and tested for their ability to target and degrade another two target proteins, CDK4 and CDK6. Calu-1 cells that express CDK4/6 proteins were treated with heterobifunctional compounds disclosed herein (D-44 to D-49) at indicated concentrations for 16 hours. Cells were collected, lysed and subject to immunoblotting using an antibody specific to CDK4, CDK6 or phosphorylated Rb proteins. Tubulin was included as the loading control. DMSO treatment was used as the negative control. […] In addition, Calu-1 cells were treated with 1 μM D-48 or D-49 for an indicated period of time. Subsequently, changes in CDK4 and CDK6 protein levels were measured by immunoblotting. […] These experiments highlight the ability of DDB1 binder derived heterobifunctional compounds to degrade multiple different target proteins, including but not limited to epigenetic target proteins, such as CBP and p300, and kinases, such as CDK4 and CDK6.

CBP = CBP (Homo sapiens (Human), UniProt Q92793); test: Immunoblot of CBP protein in LNCaP cells after compound treatment; type: cell-based
Chain of CBP (Q92793 whole entry): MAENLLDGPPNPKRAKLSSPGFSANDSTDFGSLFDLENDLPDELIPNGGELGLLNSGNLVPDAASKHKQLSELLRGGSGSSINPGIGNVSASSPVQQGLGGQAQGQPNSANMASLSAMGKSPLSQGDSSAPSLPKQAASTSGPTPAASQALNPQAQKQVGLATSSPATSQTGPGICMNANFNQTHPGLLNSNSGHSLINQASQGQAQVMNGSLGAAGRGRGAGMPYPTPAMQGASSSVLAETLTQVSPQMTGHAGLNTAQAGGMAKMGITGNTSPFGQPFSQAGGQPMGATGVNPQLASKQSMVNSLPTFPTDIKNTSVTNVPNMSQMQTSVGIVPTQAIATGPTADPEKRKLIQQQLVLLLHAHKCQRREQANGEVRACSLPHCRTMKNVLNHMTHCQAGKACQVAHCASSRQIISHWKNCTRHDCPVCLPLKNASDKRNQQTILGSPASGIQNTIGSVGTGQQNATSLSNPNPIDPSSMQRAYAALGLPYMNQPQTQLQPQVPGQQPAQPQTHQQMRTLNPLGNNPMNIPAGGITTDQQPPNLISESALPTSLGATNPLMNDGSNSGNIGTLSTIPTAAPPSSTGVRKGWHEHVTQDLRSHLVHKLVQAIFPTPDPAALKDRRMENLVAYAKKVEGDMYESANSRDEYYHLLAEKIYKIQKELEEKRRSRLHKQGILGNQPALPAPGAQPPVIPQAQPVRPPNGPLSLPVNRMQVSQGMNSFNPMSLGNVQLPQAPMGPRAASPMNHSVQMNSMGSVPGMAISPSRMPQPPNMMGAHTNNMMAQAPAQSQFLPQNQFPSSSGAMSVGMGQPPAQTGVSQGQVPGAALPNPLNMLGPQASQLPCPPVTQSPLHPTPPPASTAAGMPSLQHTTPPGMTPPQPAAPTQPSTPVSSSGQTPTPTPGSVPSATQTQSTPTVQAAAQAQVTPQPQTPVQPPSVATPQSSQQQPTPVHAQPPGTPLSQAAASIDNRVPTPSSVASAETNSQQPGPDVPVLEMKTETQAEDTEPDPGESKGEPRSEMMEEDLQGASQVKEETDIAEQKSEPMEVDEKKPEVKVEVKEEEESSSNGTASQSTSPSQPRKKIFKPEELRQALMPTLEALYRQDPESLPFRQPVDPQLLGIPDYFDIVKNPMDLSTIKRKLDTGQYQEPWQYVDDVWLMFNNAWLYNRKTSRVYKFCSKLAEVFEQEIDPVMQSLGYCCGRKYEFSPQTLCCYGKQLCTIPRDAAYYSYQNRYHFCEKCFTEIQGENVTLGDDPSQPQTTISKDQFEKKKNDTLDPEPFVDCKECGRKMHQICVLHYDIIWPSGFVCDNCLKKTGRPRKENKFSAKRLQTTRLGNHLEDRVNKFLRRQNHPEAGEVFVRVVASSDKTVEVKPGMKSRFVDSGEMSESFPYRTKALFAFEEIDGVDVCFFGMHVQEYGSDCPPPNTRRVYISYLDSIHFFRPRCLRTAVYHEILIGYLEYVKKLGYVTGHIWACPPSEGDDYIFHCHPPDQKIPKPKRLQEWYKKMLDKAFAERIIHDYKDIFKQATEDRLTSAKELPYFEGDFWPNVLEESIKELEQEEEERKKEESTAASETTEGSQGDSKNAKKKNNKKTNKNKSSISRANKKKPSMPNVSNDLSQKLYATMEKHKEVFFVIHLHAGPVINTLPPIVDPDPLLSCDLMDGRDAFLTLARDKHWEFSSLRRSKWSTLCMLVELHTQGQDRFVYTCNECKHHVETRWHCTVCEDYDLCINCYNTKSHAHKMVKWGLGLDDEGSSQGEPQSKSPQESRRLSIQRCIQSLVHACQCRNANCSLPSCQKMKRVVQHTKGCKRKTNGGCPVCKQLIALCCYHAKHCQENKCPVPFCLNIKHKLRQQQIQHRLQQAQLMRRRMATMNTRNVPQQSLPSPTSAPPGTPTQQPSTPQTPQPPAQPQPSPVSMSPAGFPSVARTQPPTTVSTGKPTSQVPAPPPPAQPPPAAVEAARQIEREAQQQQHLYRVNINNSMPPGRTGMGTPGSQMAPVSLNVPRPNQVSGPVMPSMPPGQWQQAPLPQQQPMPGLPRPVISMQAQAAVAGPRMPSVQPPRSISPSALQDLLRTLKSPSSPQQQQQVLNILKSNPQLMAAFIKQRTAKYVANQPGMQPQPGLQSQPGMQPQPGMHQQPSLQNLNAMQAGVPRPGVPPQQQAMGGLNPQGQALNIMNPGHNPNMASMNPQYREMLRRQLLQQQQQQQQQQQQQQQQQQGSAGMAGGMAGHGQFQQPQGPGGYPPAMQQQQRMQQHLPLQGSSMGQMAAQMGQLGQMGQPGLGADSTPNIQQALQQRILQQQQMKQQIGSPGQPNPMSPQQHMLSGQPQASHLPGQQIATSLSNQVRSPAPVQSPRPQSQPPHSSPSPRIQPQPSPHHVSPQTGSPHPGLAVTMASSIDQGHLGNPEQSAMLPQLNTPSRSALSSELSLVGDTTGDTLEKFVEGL
Experimental: (§5) Experiments were performed to see if heterobifunctional compounds as described herein could degrade target proteins. Specific exemplary heterobifunctional compounds were characterized in LNCaP and Calu-1 cells. LNCaP cells that express P300/CBP proteins were treated with heterobifunctional compounds disclosed herein (D-2, D-13, or D-7) at indicated concentrations for 8 hours. Cells were collected, lysed and subject to immunoblotting using an antibody specific to P300 or CBP proteins. Vinculin was included as the loading control. DMSO treatment was used as the negative control. […] In addition, LNCaP cells were treated with 500 nM of D-2, or D-13 for indicated period of time. Subsequently, changes in P300 and CBP protein levels were measured by immunoblotting.

P300 [2] = molecular target: T1, P300 (Homo sapiens (Human), UniProt Q09472); test: Immunoblot of P300 in Calu-1 cells with co-administered proteasome, neddylation or DDB1-ligand competitor; type: cell-based
T1 sequence (Q09472 whole entry): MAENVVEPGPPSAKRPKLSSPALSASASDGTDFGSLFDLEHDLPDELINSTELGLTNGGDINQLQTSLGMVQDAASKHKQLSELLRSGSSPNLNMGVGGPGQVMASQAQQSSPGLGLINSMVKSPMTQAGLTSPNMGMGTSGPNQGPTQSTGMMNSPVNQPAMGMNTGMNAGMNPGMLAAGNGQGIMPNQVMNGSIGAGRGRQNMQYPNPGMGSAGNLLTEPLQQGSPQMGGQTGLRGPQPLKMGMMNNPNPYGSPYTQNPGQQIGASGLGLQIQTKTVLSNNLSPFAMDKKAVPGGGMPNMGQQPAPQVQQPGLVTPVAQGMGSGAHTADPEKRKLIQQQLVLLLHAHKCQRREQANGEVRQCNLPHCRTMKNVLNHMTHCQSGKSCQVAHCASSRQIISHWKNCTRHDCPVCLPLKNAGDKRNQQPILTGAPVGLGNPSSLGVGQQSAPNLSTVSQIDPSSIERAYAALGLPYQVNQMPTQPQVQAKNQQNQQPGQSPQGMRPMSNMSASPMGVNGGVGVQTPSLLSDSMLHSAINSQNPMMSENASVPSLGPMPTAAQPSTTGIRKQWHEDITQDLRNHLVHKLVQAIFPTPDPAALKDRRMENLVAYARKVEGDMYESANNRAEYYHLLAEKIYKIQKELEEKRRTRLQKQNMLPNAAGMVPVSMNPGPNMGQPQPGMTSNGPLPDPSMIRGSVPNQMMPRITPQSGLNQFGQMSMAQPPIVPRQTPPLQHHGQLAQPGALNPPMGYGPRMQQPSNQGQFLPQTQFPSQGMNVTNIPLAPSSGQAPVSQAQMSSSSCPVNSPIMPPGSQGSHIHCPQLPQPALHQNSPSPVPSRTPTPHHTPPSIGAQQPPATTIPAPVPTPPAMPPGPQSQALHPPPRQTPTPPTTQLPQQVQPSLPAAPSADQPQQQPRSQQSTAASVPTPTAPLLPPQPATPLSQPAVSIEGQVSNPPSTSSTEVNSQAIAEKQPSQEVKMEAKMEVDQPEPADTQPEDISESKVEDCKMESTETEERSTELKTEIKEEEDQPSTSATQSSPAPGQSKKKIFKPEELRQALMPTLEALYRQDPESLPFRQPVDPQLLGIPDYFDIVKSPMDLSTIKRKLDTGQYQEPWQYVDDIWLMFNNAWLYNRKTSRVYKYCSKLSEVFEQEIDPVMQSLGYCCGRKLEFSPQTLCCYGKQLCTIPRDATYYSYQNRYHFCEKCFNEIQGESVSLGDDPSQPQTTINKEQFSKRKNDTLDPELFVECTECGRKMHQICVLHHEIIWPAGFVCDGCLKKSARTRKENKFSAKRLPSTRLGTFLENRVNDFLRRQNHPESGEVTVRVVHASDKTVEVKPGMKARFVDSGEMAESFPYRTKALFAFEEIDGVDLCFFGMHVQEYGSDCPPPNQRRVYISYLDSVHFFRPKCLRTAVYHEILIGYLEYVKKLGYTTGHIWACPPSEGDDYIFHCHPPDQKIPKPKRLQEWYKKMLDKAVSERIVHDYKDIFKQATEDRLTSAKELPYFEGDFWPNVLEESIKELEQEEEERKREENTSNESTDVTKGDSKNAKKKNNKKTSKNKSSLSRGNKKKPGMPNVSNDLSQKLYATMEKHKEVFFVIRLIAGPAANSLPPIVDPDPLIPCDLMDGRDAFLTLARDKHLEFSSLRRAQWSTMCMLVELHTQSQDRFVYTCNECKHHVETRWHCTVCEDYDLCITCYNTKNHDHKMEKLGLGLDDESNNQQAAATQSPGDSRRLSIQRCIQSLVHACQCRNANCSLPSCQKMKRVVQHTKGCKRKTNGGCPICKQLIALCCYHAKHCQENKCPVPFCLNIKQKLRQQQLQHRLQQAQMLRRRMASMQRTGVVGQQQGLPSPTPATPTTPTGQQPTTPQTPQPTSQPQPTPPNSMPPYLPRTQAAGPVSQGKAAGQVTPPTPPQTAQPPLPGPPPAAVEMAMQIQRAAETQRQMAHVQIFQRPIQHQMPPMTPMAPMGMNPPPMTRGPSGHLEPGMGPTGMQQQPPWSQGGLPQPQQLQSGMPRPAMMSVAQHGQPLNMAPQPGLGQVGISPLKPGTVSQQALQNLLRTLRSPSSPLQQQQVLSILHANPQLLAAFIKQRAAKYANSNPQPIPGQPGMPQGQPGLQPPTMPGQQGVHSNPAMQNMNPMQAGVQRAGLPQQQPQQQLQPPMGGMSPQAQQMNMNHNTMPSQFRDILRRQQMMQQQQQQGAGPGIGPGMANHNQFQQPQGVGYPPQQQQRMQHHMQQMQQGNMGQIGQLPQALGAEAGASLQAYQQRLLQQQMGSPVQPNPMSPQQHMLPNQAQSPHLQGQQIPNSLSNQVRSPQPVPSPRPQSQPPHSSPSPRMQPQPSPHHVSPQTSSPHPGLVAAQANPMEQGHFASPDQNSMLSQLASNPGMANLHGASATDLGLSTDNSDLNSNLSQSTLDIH
Description: The heterobifunctional compound-mediated p300 and CBP degradation was dependent on the ubiquitin-proteasome system and cullin E3 ligase. […] The binding with DDB1 also played a role in the heterobifunctional compounds ability to induce degradation of P300 and CBP proteins.

P300 [3] = molecular target: T1, P300; test: Immunoblot of P300 protein in LNCaP cells after compound treatment; type: cell-based
Experimental: as §5

[4] = indicated concentrations, 8 hours, immunoblot

SMILES	pIC50 (SK-N-SH)	pIC50 (HCT116)	pIC50 (HCC827)	pIC50 (HCC1937)	pIC50 (A375)	pIC50 (NCI-H358)	pIC50 (SK-MEL-28)	pIC50 (MDAMB-468)	pIC50 (BT-549)	pIC50 (MIA PaCa-2)	pIC50 (MDAMB-453)	pIC50 (Calu-1)	pKd (Human DDB1)	CDK4 protein levels (CDK4)	pIC50 (Hs 578T)	reduction of cell viability compared to palbociclib [1]	other results
CC(=O)Nc1cc(NCCCCN)ccc1C(=O)Nc1nc(C)c([N+](=O)[O-])s1 [BL-11, 2-Acetamido-4-((4-aminobutyl)amino)-N-(4-methyl-5-nitrothiazol-2-yl)benzamide]													4.00 to 4.70	didn't have a significant effect			
CC(=O)Nc1cc(NCCCCNC(=O)CN2CCC(n3nc(N4CCCc5cc(-c6cnn(C)c6)c(C(F)F)cc54)c4c3CCN(C(C)=O)C4)CC2)ccc1C(=O)Nc1ccc([N+](=O)[O-])s1 [D-13, 2-Acetamido-4-((4-(2-(4-(5-acetyl-3-(7-(difluoromethyl)-6-(1-methyl-1H-pyrazol-4-yl)-3,4-dihydroquinolin-1 (2H)-yl)-4,5,6,7-tetrahydro-1H-pyrazolo[4,3-c]pyridin-1-yl)piperidin-1-yl)acetamido)butyl)amino)-N-(5-nitrothiophen-2-yl)benzamide]													4.00 to 4.70				time at which significant degradation of CBP was detected (CBP; 500 nM, time course): 2 to 4 h; CBP protein levels (CBP; [4]): significantly decreased in a concentration-dependent manner; compound-induced degradation under co-administration of MG-132 or bortezomib (BTZ), or MLN4924 (P300 [2]): compromised; compound-mediated degradation under co-administration with excess DDB1 ligand BL-11 (P300 [2]): partially neutralized; time at which significant degradation of P300 was detected (P300 [3]; 500 nM, time course): 2 to 4 h; P300 protein levels (P300 [3]; [4]): significantly decreased in a concentration-dependent manner
CC(=O)c1c(C)c2cnc(Nc3ccc(N4CCN(CC(=O)NCCOCCOCCOCCOCCNc5ccc(C(=O)Nc6ncc([N+](=O)[O-])s6)c(C)c5)CC4)cn3)nc2n(C2CCCC2)c1=O [D-128, 4-((1-(4-(6-((6-Acetyl-8-cyclopentyl-5-methyl-7-oxo-7,8-dihydropyrido[2,3-d]pyrimidin-2-yl)amino)pyridin-3-yl)piperazin-1-yl)-2-oxo-6,9,12,15-tetraoxa-3-azaheptadecan-17-yl)amino)-2-methyl-N-(5-nitrothiazol-2-yl)benzamide]	> 5.70	> 5.70	> 5.70	> 5.70	> 5.70	> 5.70	> 5.70	5.00 to 5.70	> 5.70	> 5.70	> 5.70	> 5.70			> 5.70	more effective at lower doses than palbociclib	

Continued, in another order:

pIC50 (SK-N-SH)	pIC50 (HCT116)	pIC50 (HCC827)	pIC50 (HCC1937)	pIC50 (A375)	pIC50 (NCI-H358)	pIC50 (SK-MEL-28)	pIC50 (MDAMB-468)	pIC50 (BT-549)	pIC50 (MIA PaCa-2)	pIC50 (MDAMB-453)	pIC50 (Calu-1)	pKd (Human DDB1)	CDK4 protein levels (CDK4)	SMILES	pIC50 (Hs 578T)	reduction of cell viability compared to palbociclib [1]	other results
> 5.70	> 5.70	> 5.70	> 5.70	> 5.70	> 5.70	> 5.70	5.00 to 5.70	> 5.70	> 5.70	> 5.70	> 5.70			CC(=O)c1c(C)c2cnc(Nc3ccc(N4CCN(CC(=O)NCCOCCOCCOCCOCCOCCNc5ccc(C(=O)Nc6ncc([N+](=O)[O-])s6)c(C)c5)CC4)cn3)nc2n(C2CCCC2)c1=O [D-129, 4-((1-(4-(6-((6-Acetyl-8-cyclopentyl-5-methyl-7-oxo-7,8-dihydropyrido[2,3-d]pyrimidin-2-yl)amino)pyridin-3-yl)piperazin-1-yl)-2-oxo-6,9,12,15,18-pentaoxa-3-azaicosan-20-yl)amino)-2-methyl-N-(5-nitrothiazol-2-yl)benzamide]	> 5.70	more effective at lower doses than palbociclib	
< 5.00	< 5.00	< 5.00	< 5.00	5.00 to 5.70	< 5.00	5.00 to 5.70	< 5.00	< 5.00	5.00 to 5.70	< 5.00	< 5.00		didn't have a significant effect	CC(=O)c1c(C)c2cnc(Nc3ccc(N4CCNCC4)cn3)nc2n(C2CCCC2)c1=O [palbociclib, reference compound]	5.00 to 5.70		
> 5.70	> 5.70	> 5.70	> 5.70	5.00 to 5.70	> 5.70	> 5.70	5.00 to 5.70	> 5.70	> 5.70	> 5.70	> 5.70			CC(=O)c1c(C)c2cnc(Nc3ccc(N4CCN(CC(=O)NCCOCCOCCOCCOCCOCCOCCNc5ccc(C(=O)Nc6ncc([N+](=O)[O-])s6)c(C)c5)CC4)cn3)nc2n(C2CCCC2)c1=O [D-130, 4-((1-(4-(6-((6-Acetyl-8-cyclopentyl-5-methyl-7-oxo-7,8-dihydropyrido[2,3-d]pyrimidin-2-yl)amino)pyridin-3-yl)piperazin-1-yl)-2-oxo-6,9,12,15,18,21-hexaoxa-3-azatricosan-23-yl)amino)-2-methyl-N-(5-nitrothiazol-2-yl)benzamide]	> 5.70	more effective at lower doses than palbociclib	
